# According to US7943629B2, “Sulphimides as protein kinase inhibitors” (Bayer Schering Pharma AG, priority 2006, dated 2011):
# Columns and labels:
# MCF7 breast tumour cells = assay: MCF7 proliferation assay; assay type: cell-based, human; settings: for IC50: Homo sapiens, MCF7, 96 h, 4 days incubation, crystal violet staining; for antiproliferative activity, MCF7 (in words): summary of Tab. 2
# Experimental: Cultivated human MCF7 breast tumour cells (ATCC HTB-22) were plated out in a density of 5000 cells/measurement point in 200 μl of growth medium (RPMI1640, 10% foetal calf serum, 2 mU/mL insulin, 0.1 nM oestradiol) in a 96-well multititre plate. After 24 hours, the cells from a plate (zero plate) were stained with crystal violet (see below), while the medium in the other plates was replaced by fresh culture medium (200 μl) to which the test substances had been added in various concentrations (0 μM, and in the range 0.1-30 μM; the final concentration of the solvent dimethyl sulphoxide was 0.5%). The cells were incubated in the presence of the test substances for 4 days. The cell proliferation was determined by staining the cells with crystal violet: the cells were fixed by adding 20 μl/measurement point of an 11% strength glutaraldehyde solution at room temperature for 15 min. After the fixed cells had been washed three times with water, the plates were dried at room temperature. The cells were stained by adding 100 μl/measurement point of a 0.1% strength crystal violet solution (pH adjusted to pH 3 by adding acetic acid). After the stained cells had been washed three times with water, the plates were dried at room temperature. The dye was dissolved by adding 100 μl/measurement point of a 10% strength acetic acid solution, and the extinction was determined by photometry at a wavelength of 595 nm. The percentage change in cell growth was calculated by normalizing the measurements to the extinctions of the zero point plate (=0%) and the extinction of the untreated (0 μM) cells (=100%). The IC50 values were determined by means of a 4-parameter fit using the company's own software.
# KDR (VEGFR2) = target: T1, KDR (VEGFR2) (Homo sapiens, UniProt P35968); assay: KDR kinase assay; assay type: biochemical; settings: 10 μM ATP, 22° C., 45 min, HTRF
# T1 construct: made in house; host or cells: E. coli
# T1 sequence (P35968 20-1356, species assumed): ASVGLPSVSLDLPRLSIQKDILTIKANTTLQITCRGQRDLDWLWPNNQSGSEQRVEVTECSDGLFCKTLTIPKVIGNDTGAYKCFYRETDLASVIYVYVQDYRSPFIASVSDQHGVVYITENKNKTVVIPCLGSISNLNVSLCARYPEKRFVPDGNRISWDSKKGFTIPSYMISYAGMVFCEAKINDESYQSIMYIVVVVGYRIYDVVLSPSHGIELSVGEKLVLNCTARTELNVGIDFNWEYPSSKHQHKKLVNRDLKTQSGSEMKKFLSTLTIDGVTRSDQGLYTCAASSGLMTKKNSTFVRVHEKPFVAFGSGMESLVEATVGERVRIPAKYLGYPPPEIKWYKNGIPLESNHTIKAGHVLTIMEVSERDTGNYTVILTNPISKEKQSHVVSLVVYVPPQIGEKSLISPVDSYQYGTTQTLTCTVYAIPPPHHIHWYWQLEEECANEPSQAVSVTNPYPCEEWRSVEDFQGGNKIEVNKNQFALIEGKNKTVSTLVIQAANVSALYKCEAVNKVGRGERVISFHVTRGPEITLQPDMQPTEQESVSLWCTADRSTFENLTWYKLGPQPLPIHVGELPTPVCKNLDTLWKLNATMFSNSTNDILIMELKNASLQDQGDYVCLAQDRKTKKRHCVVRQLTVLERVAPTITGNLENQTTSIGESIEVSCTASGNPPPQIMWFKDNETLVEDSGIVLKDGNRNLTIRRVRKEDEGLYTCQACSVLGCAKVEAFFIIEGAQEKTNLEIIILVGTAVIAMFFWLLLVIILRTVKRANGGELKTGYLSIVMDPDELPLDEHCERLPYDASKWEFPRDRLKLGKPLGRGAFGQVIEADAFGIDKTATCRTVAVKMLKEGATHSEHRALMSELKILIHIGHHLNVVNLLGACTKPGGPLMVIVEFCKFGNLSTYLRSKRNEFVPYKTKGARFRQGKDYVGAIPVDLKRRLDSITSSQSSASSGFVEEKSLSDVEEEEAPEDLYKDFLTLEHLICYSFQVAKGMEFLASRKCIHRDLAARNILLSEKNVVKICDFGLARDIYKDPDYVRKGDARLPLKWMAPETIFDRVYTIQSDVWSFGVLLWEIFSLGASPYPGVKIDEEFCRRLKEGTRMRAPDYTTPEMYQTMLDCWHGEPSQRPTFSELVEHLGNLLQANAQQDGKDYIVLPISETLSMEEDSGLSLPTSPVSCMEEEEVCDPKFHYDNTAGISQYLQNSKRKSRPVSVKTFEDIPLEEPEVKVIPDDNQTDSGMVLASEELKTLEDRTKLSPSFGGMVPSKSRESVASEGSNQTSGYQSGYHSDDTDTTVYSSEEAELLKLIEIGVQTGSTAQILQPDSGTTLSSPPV
# Experimental: Recombinant KDR protein was expressed in E. coli and then purified. The kinase substrate used was the biotinylated peptide having the amino acid sequence biotin-DFGLARDMYDKEYYSVG, which was purchased from Biosynthan. KDR [test volume 5 μl] was incubated in the presence of various concentrations of test substances (0 μM, and 10 measurement points within the range 0.001-20 μM in duplicate) in assay buffer [50 mM HEPES pH 7.0, 25.0 mM MgCl2, […], 0.1 mM Na ortho-vanadate, 1.0 mM dithiothreitol, 0.001% NP40, 10 μM ATP, 0.03 μM substrate peptide […], 1.0% dimethyl sulphoxide] at 22° C. for 45 min. The reaction was stopped by adding 5 μl of an EDTA/detection solution [50 mM HEPES pH 7.5, 125 mM EDTA, 0.2% BSA, 0.1 μM streptavidin-XLent (from CisBio), 2 nM PT66-Eu (from PerkinElmer)]. The fluorescence emission at 620 nm and 665 nm after excitation with light of the wavelength 350 nm was measured in a Rubystar HTRF instrument from BMG Labsystems.
# The measured data (ratio of emission 665 divided by emission 620 multiplied by 10 000) were normalized to 0% inhibition (enzyme reaction without inhibitor) and 100% inhibition (all assay components apart from enzyme). The IC50 values were determined by means of a 4-parameter fit using the company's own software.
# CDK1/CycB = target: T2, CDK1/CycB (Homo sapiens, UniProt P06493); assay: CDK1/CycB kinase assay; assay type: biochemical; settings: 0.5 μM ATP, histone IIIS, 22° C., 10 min
# T2 construct: GST; purchased ProQinase GmbH, Freiburg; host or cells: baculovirus-infected insect cells (Sf9)
# T2 sequence (P06493 whole entry): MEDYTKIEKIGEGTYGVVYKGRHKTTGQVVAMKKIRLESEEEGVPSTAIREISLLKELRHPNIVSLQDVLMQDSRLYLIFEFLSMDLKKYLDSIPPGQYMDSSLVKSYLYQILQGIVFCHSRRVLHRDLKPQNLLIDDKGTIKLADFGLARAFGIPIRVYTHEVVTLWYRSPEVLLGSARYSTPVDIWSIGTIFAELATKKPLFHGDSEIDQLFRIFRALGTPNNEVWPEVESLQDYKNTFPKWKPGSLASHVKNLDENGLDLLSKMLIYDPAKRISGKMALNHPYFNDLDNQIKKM
# T2 sequence (P14635 whole entry partner): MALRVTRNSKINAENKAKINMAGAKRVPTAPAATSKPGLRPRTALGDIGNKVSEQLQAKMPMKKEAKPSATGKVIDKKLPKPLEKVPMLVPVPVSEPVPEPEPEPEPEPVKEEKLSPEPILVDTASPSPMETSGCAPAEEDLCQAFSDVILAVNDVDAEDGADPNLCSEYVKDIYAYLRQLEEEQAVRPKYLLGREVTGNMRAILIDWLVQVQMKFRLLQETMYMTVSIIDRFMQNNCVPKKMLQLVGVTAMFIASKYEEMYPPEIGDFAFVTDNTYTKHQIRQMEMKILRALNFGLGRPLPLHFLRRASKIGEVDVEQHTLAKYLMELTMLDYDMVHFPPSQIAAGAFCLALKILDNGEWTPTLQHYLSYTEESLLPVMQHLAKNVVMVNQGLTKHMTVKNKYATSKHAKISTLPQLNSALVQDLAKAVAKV
# Experimental: (§1) Recombinant CDK1- and CycB-GST fusion proteins, purified from baculovirus-infected insect cells (Sf9), were purchased from ProQinase GmbH, Freiburg. The histone IIIS used as kinase substrate can be purchased from Sigma. CDK1/CycB (200 ng/measurement point) was incubated in the presence of various concentrations of test substances (0 μM, and within the range 0.01-100 μM) in assay buffer [50 mM Tris/HCl pH 8.0, 10 mM MgCl2, 0.1 mM Na ortho-vanadate, 1.0 mM dithiothreitol, 0.5 μM ATP, 10 μg/measurement point histone IIIS, 0.2 μCi/measurement point ^33P-gamma-ATP, 0.05% NP40, 1.25% dimethyl sulphoxide] at 22° C. for 10 min. The reaction was stopped by adding EDTA solution (250 mM, pH 8.0, 15 μl/measurement point).
# 15 μl of each reaction mixture were loaded onto P30 filter strips (from Wallac), and non-incorporated ^33P-ATP was removed by washing the filter strips three times in 0.5% strength phosphoric acid for 10 min each time. After the filter strips had been dried at 70° C. for 1 hour, the filter strips were covered with scintillator strips (MeltiLex™ A, from Wallac) and baked at 90° C. for 1 hour. The amount of incorporated ^33P (substrate phosphorylation) was determined by scintillation measurement in a gamma radiation counter (Wallac).
# CDK2/CycE = target: T3, CDK2/CycE (Homo sapiens, UniProt P24941); assay: CDK2/CycE kinase assay; assay type: biochemical; settings: 0.5 μM ATP, histone IIIS, 22° C., 10 min
# T3 construct: GST; purchased ProQinase GmbH, Freiburg; host or cells: baculovirus-infected insect cells (Sf9)
# Experimental: Recombinant CDK2- and CycE-GST fusion proteins, purified from baculovirus-infected insect cells (Sf9), were purchased from ProQinase GmbH, Freiburg. The histone IIIS used as kinase substrate was purchased from Sigma.
# as §1, with “CDK2/CycE (50” for “Recombinant CDK1- and CycB-GST fusion proteins, purified from baculovirus-infected insect cells (Sf9), were purchased from ProQinase GmbH, Freiburg. The histone IIIS used as kinase substrate can be purchased from Sigma. CDK1/CycB (200”
# 15 μl of each reaction mixture were loaded onto P30 filter strips (from Wallac), and non-incorporated ^33P-ATP was removed by washing the filter strips three times in 0.5% strength phosphoric acid for 10 min each time.
# After the filter strips had been dried at 70° C. for 1 hour, the filter strips were covered with scintillator strips (MeltiLex™ A, from Wallac) and baked at 90° C. for 1 hour. The amount of incorporated ^33P (substrate phosphorylation) was determined by scintillation measurement in a gamma radiation counter (Wallac).
# Aurora-C = target: T4, Aurora-C (Homo sapiens, UniProt Q9UQB9); assay: Aurora-C kinase assay; assay type: biochemical; settings: for IC50: 3 μM ATP, 22° C., 90 min
# T4 construct: made in house; host or cells: transiently transfected HEK293 cells
# T4 sequence (Q9UQB9 1-309): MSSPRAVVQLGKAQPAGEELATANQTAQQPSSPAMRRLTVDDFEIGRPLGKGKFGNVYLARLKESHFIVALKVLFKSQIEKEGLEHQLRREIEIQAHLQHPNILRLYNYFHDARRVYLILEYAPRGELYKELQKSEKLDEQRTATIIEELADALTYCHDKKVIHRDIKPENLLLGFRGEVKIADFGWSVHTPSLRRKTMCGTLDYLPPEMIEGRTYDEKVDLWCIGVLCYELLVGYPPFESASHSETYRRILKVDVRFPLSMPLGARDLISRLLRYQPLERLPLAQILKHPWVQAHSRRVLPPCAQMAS
# Experimental: Recombinant Aurora-C protein was expressed in transiently transfected HEK293 cells and then purified. The kinase substrate used was the biotinylated peptide having the amino acid sequence biotin-FMRLRRLSTKYRT, which was purchased from Jerini AG in Berlin.
# Aurora-C [5 nM in the test mixture, test volume 5 μl] was incubated in the presence of various concentrations of test substances (0 μM and 10 measurement points within the range 0.001-20 μM in duplicate) in assay buffer [25 mM HEPES pH 7.4, 0.5 mM MnCl2, 0.1 mM Na ortho-vanadate, 2.0 mM dithiothreitol, 0.05% bovine serum albumin (BSA), 0.01% Triton X-100, 3 μM adenosine trisphosphate (ATP), 0.67 nCi/μl gamma-^33P-ATP, 2.0 μM substrate peptide biotin-FMRLRRLSTKYRT, 1.0% dimethyl sulphoxide] at 22° C. for 90 min. The reaction was stopped by adding 12.5 μl of an EDTA/detection solution [16 mM EDTA, 40 mM ATP, 0.08% Triton X-100, 4 mg/ml PVT streptavidin SPA beads (from Amersham)]. After incubation for 10 minutes, the SPA beads were pelleted by centrifugation at 1000×G for 10 minutes. Measurement took place in a PerkinElmer Topcount scintillation counter. The measured data were normalized to 0% inhibition (enzyme reaction without inhibitor) and 100% inhibition (enzyme reaction in the presence of 0.1 μM staurosporine (from Sigma)). The IC50 values were determined by means of a 4-parameter fit using the company's own software.
IC50 (MCF7 breast tumour cells) [nM],IC50 (KDR (VEGFR2)) [nM],IC50 (CDK1/CycB) [nM],IC50 (CDK2/CycE) [nM],IC50 (Aurora-C) [nM],inhibition of Aurora C kinase (in words) (Aurora-C; summary of Tab. 1),Compound,"antiproliferative activity, MCF7 (in words) (MCF7 breast tumour cells)"
170,150,260,72,1800,–,"C[C@@H](Nc1nc(Nc2ccc(S(C)=NS(=O)(=O)c3ccc(OC(F)(F)F)cc3)cc2)ncc1Br)C(C)(C)O (mixture of isomers) [Example 16, (RS)—S-{4-[(5-Bromo-4-{[(R)-2-hydroxy-1,2-dimethylpropyl]-amino}pyrimidin-2-yl)amino]phenyl}-S-methyl-N-{[4-(trifluoromethoxy)phenyl]-sulphonyl}sulphimide]",excellent antiproliferative activity
–,–,–,–,–,–,"C[C@@H](Nc1nc(Nc2ccc(S(C)=NS(=O)(=O)c3ccc(Cl)s3)cc2)ncc1Br)C(C)(C)O (mixture of isomers) [Example 17, (RS)—S-{4-[(5-Bromo-4-{[(R)-2-hydroxy-1,2-dimethylpropyl]amino}pyrimidin-2-yl)amino]phenyl}-N-[(5-chloro-2-thienyl)sulphonyl]-S-methylsulphimide]",excellent antiproliferative activity
–,43,> 1000,> 1000,680,–,"Cc1ccc(S(=O)(=O)N=S(C)c2ccc(Nc3ncc(Br)c(NCCO)n3)cc2)cc1 (racemic) [Example 7, (RS)—S-[4-({5-Bromo-4-[(2-hydroxyethyl)amino]pyrimidin-2-yl}amino)phenyl]-S-methyl-N-(tolylsulphonyl)sulphimide]",–
–,–,–,–,–,–,"Cc1ccc(S(=O)(=O)N=S(C)c2ccc(Nc3ncc(Br)c(N[C@H](C)C(C)(C)O)n3)cc2)nc1 (mixture of isomers) [Example 10, (RS)—S-{4-[(5-Bromo-4-{[(R)-2-hydroxy-1,2-dimethylpropyl]amino}pyrimidin-2-yl)amino]phenyl}-S-methyl-N-[(5-methyl-2-pyridyl)sulphonyl]sulphimide]",excellent antiproliferative activity
2200,35,990,–,36,–,"CC(=O)NCCNc1nc(Nc2ccc(S(C)=NS(=O)(=O)c3ccc(C)cc3)cc2)ncc1Br (racemic) [Example 23, (RS)—S-{4-[(4-{[2-(Acetylamino)ethyl]amino}-5-bromopyrimidin-2-yl)amino]-phenyl}-S-methyl-N-(tolylsulphonyl)sulphimide]",–
–,200,> 1000,> 1000,–,–,"Cc1ccc(S(=O)(=O)N=S(C)c2cccc(Nc3ncc(Br)c(NC(C)C)n3)c2)cc1 (racemic) [Example 2, (RS)—S-(3-{[5-Bromo-4-(isopropylamino)pyrimidin-2-yl]amino}phenyl)-S-methyl-N-(tolylsulphonyl)sulphimide]",–
–,760,> 1000,> 1000,4600,–,"Cc1ccc(S(=O)(=O)N=S(C)c2ccc(Nc3nccc(NC(C)C)n3)cc2)cc1 (racemic) [Example 5, (RS)—S-(4-{[4-(Isopropylamino)pyrimidin-2-yl]amino}phenyl)-S-methyl-N-(tolylsulphonyl)sulphimide]",–
–,120,> 1000,> 1000,–,–,"Cc1ccc(S(=O)(=O)N=S(C)c2ccc(Nc3ncc(Br)c(Nc4ccccc4)n3)cc2)cc1 (racemic) [Example 6, (RS)—S-{4-[(4-Anilino-5-bromopyrimidin-2-yl)amino]phenyl}-S-methyl-N-(tolylsulphonyl)sulphimide]",–
340,13,> 1000,–,90,inhibits,"Cc1ccc(S(=O)(=O)N=S(C)c2ccc(Nc3ncc(Br)c(NC4CC4)n3)cc2)cc1 (racemic) [Example 3, (RS)—S-(4-{[5-Bromo-4-(cyclopropylamino)pyrimidin-2-yl]amino}phenyl)-S-methyl-N-(tolylsulphonyl)sulphimide]",–
–,170,> 1000,> 1000,–,–,"Cc1ccc(S(=O)(=O)N=S(C)c2cccc(Nc3ncc(Br)c(NC4CC4)n3)c2)cc1 (racemic) [Example 4, (RS)—S-(3-{[5-Bromo-4-(cyclopropylamino)pyrimidin-2-yl]amino}phenyl)-S-methyl-N-(tolylsulphonyl)sulphimide]",–
